Assay results: PubChem BioAssay (NCI)
Where “and” joins values, the source holds several entries; their conditions need not be identical. Equal values may be shown once.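 Protocol summary: plate cells (96-well), add compound at 5 concentrations, incubate 48 h, interpolate endpoints linearly. GI50 marks 50% less growth. TGI: concentration producing complete growth inhibition.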

What was measured:
Test in all cases: NCI tumour cell line growth inhibition, 48 h
OVCAR-4 ovarian = tested on: OVCAR-4 ovarian
MCF7 breast = tested on: MCF7 breast
NCI-H460 lung = tested on: NCI-H460 lung
UO-31 renal = tested on: UO-31 renal
HOP-62 NSCLC = tested on: HOP-62 NSCLC
HCT-116 colon = tested on: HCT-116 colon
MOLT-4 leukemia = tested on: MOLT-4 leukemia
CAKI-1 renal = tested on: CAKI-1 renal
UACC-62 melanoma = tested on: UACC-62 melanoma
OVCAR-3 ovarian = tested on: OVCAR-3 ovarian
SK-OV-3 ovarian = tested on: SK-OV-3 ovarian

Row | SMILES | TGI (OVCAR-4 ovarian) | TGI (MCF7 breast) | TGI (NCI-H460 lung) | TGI (UO-31 renal) | TGI (HOP-62 NSCLC) | TGI (HCT-116 colon) | TGI (MOLT-4 leukemia) | TGI (CAKI-1 renal) | TGI (UACC-62 melanoma) | TGI (OVCAR-3 ovarian) | TGI (SK-OV-3 ovarian) | GI50 (CAKI-1 renal) | GI50 (OVCAR-4 ovarian) | GI50 (UO-31 renal) | GI50 (HCT-116 colon) | GI50 (MOLT-4 leukemia) | GI50 (UACC-62 melanoma)
1 | O=C(O)CN1CCN(CC(=O)O)CCN(CC(=O)O)CCN(CC(=O)O)CC1 | > 100 µM | > 100 µM | > 100 µM | > 100 µM | > 100 µM | > 100 µM | > 100 µM | > 100 µM | > 100 µM | > 100 µM |  |  |  |  |  |  | 
2 | O=C(Cc1ccccc1)c1ccc2[nH]c(=O)oc2c1 |  | > 100 µM | > 100 µM |  | > 100 µM | > 100 µM | > 100 µM | > 100 µM | > 100 µM | > 100 µM | > 100 µM |  |  |  |  |  | 
3 | CC(C)(C)[C@H]1CO[C@]2(C)[C@@H]3C[C@@H]3C(=O)N12 | > 100 µM |  | > 100 µM | > 100 µM | > 100 µM | > 100 µM |  | > 100 µM | > 100 µM | > 100 µM | > 100 µM |  |  |  |  |  | 
4 | O=c1cc(-c2cccc(OC(F)(F)F)c2)[nH]c2cc3c(cc12)OCO3 |  | > 100 µM | 1.1 µM |  | > 47.8 µM | 34.6 µM | > 100 µM | > 100 µM |  | 3.92 µM |  |  |  |  |  |  | 
5 | O=C(CCCn1ccnc1[N+](=O)[O-])NCCn1ccnc1 |  | > 100 µM | > 100 µM | > 100 µM | > 100 µM | > 100 µM | > 100 µM | > 100 µM | > 100 µM | > 100 µM | > 100 µM |  |  |  |  |  | 
6 | COc1ccc(CN(CCc2c[nH]c3ccccc23)Cc2ccc(OC)cc2)cc1 | 12.7 µM | > 100 µM | > 61.7 µM | 6.8 µM | 11.3 µM |  | > 100 µM | > 30.2 µM | 5.6 µM | 9.25 µM | 17.9 µM |  |  |  |  |  | 
7 | CC(=O)Nc1ccc2c(C)c3c4ccccc4n(C)c3nc2n1 |  | 96.7 µM | 15.5 µM | 32.3 µM | 94.8 µM | 44.6 µM | 32.1 µM | > 100 µM | 69 µM | 70.1 µM |  |  |  |  |  |  | 
8 | CSc1cc(Cl)c(C)cc1S(=O)(=O)NC(=O)NNc1ccc(F)c(Cl)c1 | > 100 µM | > 100 µM | > 100 µM |  | > 100 µM | > 100 µM | > 100 µM | > 100 µM |  | > 100 µM | > 100 µM |  |  |  |  |  | 
9 | O=C(c1ccncc1)n1nc(-c2ccccc2)c(N=Nc2ccc([N+](=O)[O-])cc2)c1-c1ccccc1 | 28.2 µM |  |  | 86.2 µM | > 100 µM | > 100 µM | > 100 µM | > 100 µM | > 100 µM | > 100 µM | > 100 µM |  |  |  |  |  | 
10 | CC1NC(/C(=C/c2ccccc2O)NC(=O)c2ccccc2)OC1=O (stereo not given) | > 50 µM | > 50 µM |  | > 50 µM | > 50 µM | > 50 µM | > 50 µM | > 50 µM | > 50 µM | > 50 µM | > 50 µM |  |  |  |  |  | 
11 | CC(C)/C=N\n1c(N)c(C#N)c(C#N)c1C(C)C | 84.9 µM | > 100 µM |  | 64.2 µM | > 100 µM | > 100 µM | 63.4 µM | > 100 µM | 34.7 µM | 62.1 µM | > 100 µM |  |  |  |  |  | 
12 | O=C1CCCC2=C1CC1=C(CCCC1=O)N2c1cccc2ccccc12 | > 100 µM | > 100 µM | > 100 µM | > 100 µM |  |  | > 100 µM | > 100 µM | > 100 µM | > 100 µM | > 100 µM |  |  |  |  |  | 
13 | CC(=O)c1ccc2c(c1)oc(=O)n2CCN1CCCCC1 |  | > 100 µM | > 100 µM |  | > 100 µM | > 100 µM | > 100 µM | > 100 µM | > 100 µM | > 100 µM | > 100 µM |  |  |  |  |  | 
14 | Cc1cc(Cl)ccc1N=NC(=O)NNc1ccc(Cl)cc1C | 38.6 µM |  | 27.4 µM | 29.6 µM | 23.9 µM | 26.7 µM | 48.9 µM |  | 24.8 µM | 31 µM |  |  |  |  |  |  | 
15 | [N-]=[N+]=NC1C(Br)C(=O)NC(=O)N1[C@H]1C[C@H](O)[C@@H](CO)O1 (stereo not given in full) | > 100 µM |  | > 100 µM | > 100 µM | > 100 µM |  | > 100 µM | > 100 µM | > 100 µM | > 100 µM | > 100 µM | 66.3 µM |  |  |  |  | 
16 | CC1(O)/C(=N/O)CC2CC1C2(C)C (stereo not given) | > 100 µM | > 100 µM | > 100 µM | > 100 µM |  |  | > 100 µM |  | > 100 µM | > 100 µM |  |  |  |  |  |  | 
17 | CCC(=O)COc1ccc(NC(NC(=O)C(C(F)(F)F)C(F)(F)F)(C(F)(F)F)C(F)(F)F)cc1 | > 100 µM | > 100 µM | > 100 µM | > 100 µM | > 100 µM | 67.6 µM | 44.8 µM | 94.1 µM |  | > 100 µM | > 100 µM |  |  |  |  |  | 
18 | CC1(C)OCC(C2OC(N3O[C@H](CI)C[C@@H]3c3ccccc3)C3OC(C)(C)OC23)O1 (stereo not given in full) | > 100 µM | > 100 µM | > 100 µM | > 100 µM | > 100 µM | > 100 µM |  | > 100 µM | > 100 µM | > 100 µM | > 100 µM |  |  |  |  |  | 
19 | COc1ccc(OC)c2nc3c(C(=O)NCCN(C)C)cccc3nc12 | 11.1 µM | > 29.8 µM | 21.5 µM | > 84.7 µM | 35.7 µM | 20.6 µM | 17.6 µM | > 74 µM | > 49.3 µM | 42.3 µM |  |  |  |  |  |  | 
20 | COC12C=CC(CC1)C1C(=O)c3c(C)c(C)n(C)c3C(=O)C12 (stereo not given) |  | > 100 µM | > 100 µM | > 100 µM | > 100 µM | > 100 µM | > 100 µM |  | > 100 µM | > 100 µM | > 100 µM |  |  |  |  |  | 
21 | Cc1ccc(S(=O)(=O)NNC(=S)Nc2cccc3ccccc23)cc1 | 66.8 µM | > 100 µM | > 100 µM | > 100 µM | > 100 µM | > 100 µM | > 100 µM | > 100 µM | > 100 µM |  | > 100 µM |  |  |  |  |  | 
22 | Cn1c2nc3ccccc3c-2cc2ccccc21 | 19 µM and 26.2 µM | > 34.8 µM and 36.9 µM | 11.9 µM and 12.9 µM | 11.6 µM and 37.7 µM |  | > 100 µM | 7.15 µM and 9.9 µM | 8.7 µM and 37.1 µM | 8.85 µM and 20.8 µM | > 46.2 µM and 28 µM | > 100 µM | 2.6 µM and 5.52 µM | 3.81 µM and 10.7 µM | 2.6 µM and 5.47 µM | 1.8 µM and 4.57 µM | 1.38 µM and 2.97 µM | 3.05 µM and 8.55 µM
